We go through 17 molecules from patent US6649656B1, “Anthranilic acid derivatives” (Teijin Limited, priority 1998, dated 2003).

Read-outs that look alike come from different tables or passages of the source. Where only a bound is given, the exact number is not on record here.

As usually defined, the TGI is the concentration at which net growth stops. Low values mean more potent growth arrest, high ones less potent growth arrest. For orientation: GI50 means the concentration that inhibits growth by half. Low values mean greater sensitivity of the cells, high ones lower sensitivity of the cells.

One test relates to L929 cells. Nature of the test: Measurement of cytotoxicity using mouse tumor cell L929 (neutral red assay). It is filed as cell-based. How it is done: [Procedure] The cytotoxicity action on tumor cell was measured by neutral red assay (the method described in the Journal of Tissue Culture Methodology vol.9, p.7 (1984) and Toxicology Letters, vol.24, p.119 (1985)). Concretely, L929 cells (5×10^4 cells/ml, 10% FCS/RPMI) were added to the wells of a 96 well ELISA plate at a rate of 100 μL each and cultured for a night, and the testing compounds of respective measurement concentrations were dissolved in DMSO solution and added to the above cells. The culture was continued for 3 days, and 2.0 μL of Neutral Red was added to attain the final concentration of 0.01%. The mixture was incubated for 1 hour at 37° C., the supernatant of the cell culture product was removed and the residue was washed twice with 200 μL of PBS to remove excess Neutral Red. Thereafter, the dye taken into the cell was extracted by adding 100 μL of 50% ethanol-1% acetic acid aqueous solution and the amount of the dye was determined by measuring the absorbance at 490 nm. The cytotoxicity was determined at each concentration of the test compound taking the cytotoxicity free from the drug as 100%. […] Two sets of measurement were performed for each test under the same condition and the average value was used as the test result.

The subject of test [1] is Cultured human cancer cells. Nature of the test: Carcinostatic action on cultured human cancer cell (sulforhodamine B; GI50, TGI, LC50). The test is classed as cell-based. The conditions noted are these: for CC50 / GI50: Homo sapiens. How it is done: [Procedure] Cultured human cancer cells (39 kinds) were scattered on a 96 well plate, a solution of the testing substance (5-stage concentrations starting from 10^−4 M and diluted 10 times to 10^−8 M) was added thereto on the next day and the cells were cultured for 2 days. The number of the proliferated cells on each plate was determined by colorimetric quantitative analysis with sulforhodamine B. The concentration to suppress the proliferation of cell by 50% (GI50) compared with a control (free from the testing substance) was calculated and the following values (concentrations) were calculated based on the number of cells immediately before the addition of the testing substance.
TGI: concentration to suppress the proliferation to a standard cell number (free from the change of apparent number of cells)
LC50: concentration to decrease the number of cells to 50% of the standard cell number (cytocidal activity)
The proliferation-suppressing results of three testing substances 124, 257 and 983 on 9 representative cancer cell strains are collectively shown in the Tables 93 to 95.

Where [2] appears, read: 72 h, cytotoxic activity against L929, neutral red assay, 3 days culture, read-out: LD50 (the source's name).
The mark [3] stands for this setting: L929, 72 h, read-out: LD50 (μM).

`Cn1c(C(=O)N[C@H]2CC[C@@H](Oc3ccc(Oc4ccc(CC(=O)Nc5ccccc5C(=O)O)cc4)cc3)CC2)cc2ccccc21` [compound 167]: in the test on L929 cells (setting [2]), the CC50 amounted to 0.18 µM.
`CC(=O)NC1(COc2ccc(Oc3ccc(CC(=O)Nc4ccccc4C(=O)O)cc3)cc2)CCCC1` [compound 73]: in the test with L929 cells (setting [3]), the CC50 was above 5 µM.
On to `COC(=O)N1CCC[C@H]1COc1ccc(Oc2ccc(CC(=O)Nc3ccccc3C(=O)O)cc2)cc1` [compound 59], for which, in the test with L929 cells (setting [3]), the CC50 worked out at 2.4 µM.
Regarding `O=C(Cc1ccc(Oc2ccc(O[C@H]3CC[C@@H](NC(=O)c4ccc(Oc5cc(Cl)cc(Cl)c5)o4)CC3)cc2)cc1)Nc1ccccc1C(=O)O` [compound 248], in the test on L929 cells (setting [2]), the CC50 was 0.085 µM.
In the case of `O=C(Cc1ccc(Oc2ccc(OCc3ccncc3)cc2)cc1)Nc1ccccc1C(=O)O` [compound 37], the CC50 with L929 cells (setting [3]) amounted to 1.02 µM.
For the molecule `CNc1ccccc1C(=O)N[C@H]1CC[C@@H](Oc2ccc(Oc3ccc(CC(=O)Nc4ccccc4C(=O)O)cc3)cc2)CC1` [compound 156], the CC50 in the test with L929 cells (setting [2]) came out at 0.3 µM.
On to `N#Cc1cccc(SN2CCC(Oc3ccc(Oc4ccc(CC(=O)Nc5ccccc5C(=O)O)cc4)cc3)CC2)c1` [compound 264], for which the CC50 in the test on L929 cells (setting [2]) came to 0.156 µM.
As for `O=C(Cc1ccc(Oc2ccc(OC3CCN(Sc4ccc(Cl)c(Cl)c4)CC3)cc2)cc1)Nc1ccccc1C(=O)O` [compound 257], the “TGI” value in test [1] (HBC-4) is 18 µM; in test [1] (HCT-15), 17 µM; in test [1] (LOX-IMVI), 10 µM; in test [1] (MKN-74), 16 µM; in test [1] (NCI-H460), 11 µM; in test [1] (OVCAR-8), 23 µM. Also, the total growth inhibition concentration (TGI) in test [1] (PC-3) is 26 µM; in test [1] (RXF-631L), 14 µM; in test [1] (SF-539) it was 17 µM. For the same molecule, the CC50 in test [1] (HBC4, HBC-4) is 58 µM; in test [1] (HCT-15) it was 53 µM; in test [1] (MKN-74), above 100 µM; in test [1] (NCI-H460), 44 µM; in test [1] (OVCAR-8), 59 µM; in test [1] (PC-3), 69 µM. For the same molecule, the values for the CC50 in test [1] (RXF-631L), in test [1] (SF-539) and in test [1] (LOX-IMVI) were 42 µM, 51 µM and 44 µM, respectively. For the same molecule, the concentration for 50% growth inhibition (GI50) in test [1] (HBC4, HBC-4) was below 0.01 µM; in test [1] (HCT-15), below 0.01 µM; in test [1] (MKN-74), below 0.01 µM; in test [1] (NCI-H460), below 0.01 µM; in test [1] (OVCAR-8), below 0.01 µM; in test [1] (PC-3), 10 µM. Moreover, the GI50 in test [1] (RXF-631L), in test [1] (SF-539) and in test [1] (LOX-IMVI) was below 0.01 µM in each case.
Turning to `O=C(Cc1ccc(Oc2ccc(O[C@H]3CC[C@@H](NC(=O)c4ccc(-c5ccccc5)cc4)CC3)cc2)cc1)Nc1ccccc1C(=O)O` [compound 192], the CC50 with L929 cells (setting [2]) stood at 0.26 µM.
On to `O=C(Cc1ccc(Oc2ccc(OC3CCCCCCC3)cc2)nc1)Nc1ccccc1C(=O)O` [compound 983], for which the “TGI” value was 76 µM in test [1] (HBC-4); 30 µM in test [1] (HCT-15); 3.4 µM in test [1] (LOX-IMVI); 25 µM in test [1] (MKN-74); 16 µM in test [1] (NCI-H460); 40 µM in test [1] (OVCAR-8). Moreover, the “TGI” value was found to be 31 µM in test [1] (PC-3), 18 µM in test [1] (RXF-631L) and 20 µM in test [1] (SF-539). The CC50 was above 100 µM in test [1] (HBC4, HBC-4); above 100 µM in test [1] (HCT-15); above 100 µM in test [1] (MKN-74); 95 µM in test [1] (NCI-H460); above 100 µM in test [1] (OVCAR-8); above 100 µM in test [1] (PC-3). The figures for the CC50 in test [1] (RXF-631L), in test [1] (SF-539) and in test [1] (LOX-IMVI) were 96 µM, 51 µM and 50 µM, respectively. Besides, the 50% growth inhibitory concentration (GI50) in test [1] (HBC4, HBC-4) was 0.59 µM; in test [1] (HCT-15) it was 0.1 µM; in test [1] (MKN-74), 0.46 µM; in test [1] (NCI-H460) it was 0.33 µM; in test [1] (OVCAR-8), 4.2 µM; in test [1] (PC-3), 4.5 µM. The GI50 amounted to 0.4 µM in test [1] (RXF-631L), 0.6 µM in test [1] (SF-539) and 0.26 µM in test [1] (LOX-IMVI).
As for `CN(C)CCOc1ccc(Oc2ccc(CC(=O)Nc3ccccc3C(=O)O)cc2)cc1` [compound 47], the CC50 in the test on L929 cells (setting [2]) came out at 0.2 µM.
`O=C(CCCOc1ccc2cc(Oc3ccc(CC(=O)Nc4ccccc4C(=O)O)cc3)ccc2c1)Nc1ccccc1C(=O)O` [compound 4]: the CC50 in the test with L929 cells (setting [2]) was determined as 0.375 µM.
Consider `O=C(Cc1ccc(Oc2ccc(OC3CCC(NS(=O)(=O)c4ccc(Cl)c(Cl)c4)CC3)cc2)cc1)Nc1ccccc1C(=O)O` (stereo not drawn) [compound 124], for which the CC50 was 0.14 µM with L929 cells (setting [2]); 57 µM in test [1] (HBC4, HBC-4); 58 µM in test [1] (HCT-15); above 100 µM in test [1] (MKN-74); 69 µM in test [1] (NCI-H460); 57 µM in test [1] (OVCAR-8). Further, the CC50 came to 55 µM in test [1] (PC-3), 38 µM in test [1] (RXF-631L), 57 µM in test [1] (SF-539) and 45 µM in test [1] (LOX-IMVI). The “TGI” value in test [1] (HBC-4) amounted to 18 µM; in test [1] (HCT-15), 17 µM; in test [1] (LOX-IMVI), 10 µM; in test [1] (MKN-74), 16 µM; in test [1] (NCI-H460) it was 14 µM; in test [1] (OVCAR-8) it was 23 µM. Moreover, the “TGI” value in test [1] (PC-3) is 24 µM; in test [1] (RXF-631L) it was 12 µM; in test [1] (SF-539), 26 µM. The GI50 in test [1] (HBC4, HBC-4) amounted to 0.25 µM; in test [1] (HCT-15) it was 0.17 µM; in test [1] (MKN-74), 0.086 µM; in test [1] (NCI-H460) it was 0.091 µM; in test [1] (OVCAR-8), 3.1 µM; in test [1] (PC-3), 10 µM. The figures for the GI50 in test [1] (RXF-631L), in test [1] (SF-539) and in test [1] (LOX-IMVI) were 0.13 µM, 0.13 µM and 0.09 µM, respectively.
With `O=C(Cc1ccc(Oc2ccc(OC3CCC(NC(=O)Nc4ccccc4)CC3)cc2)cc1)Nc1ccccc1C(=O)O` (stereo not drawn) [compound 138], the CC50 with L929 cells (setting [2]) stood at 0.13 µM.
Consider `O=C(Cc1ccc(Oc2ccc(OCC3(NSc4ccccc4)CCCC3)cc2)cc1)Nc1ccccc1C(=O)O` [compound 268], for which the CC50 with L929 cells (setting [2]) worked out at 0.16 µM.
With `O=C(Cc1ccc(Oc2ccc3cc(OCC(=O)c4ccccc4)ccc3c2)cc1)Nc1ccccc1C(=O)O` [compound 6], the CC50 in the test with L929 cells (setting [3]) amounted to 2.4 µM.
`O=C(Cc1ccc(Oc2ccc(OCC3(NC(=O)c4ccccc4)CCCC3)cc2)cc1)Nc1ccccc1C(=O)O` [compound 74]: the CC50 in the test with L929 cells (setting [3]) was above 5 µM.
